Values quoted from earlier work as cited in patent US10493069B2, “Methods of treating behavioral syndromes using pipradrol” (Ovid Therapeutics Inc., priority 2016, dated 2019).

Test system: individuals with depression
Settings: study on 111 individuals with depression; Rickels et al., J Clin Pharmacol 14, 127-133 (1974)

## OC(c1ccccc1)(c1ccccc1)C1CCCCN1 (stereo not shown) [pipradrol]
  efficacy compared with placebo in depression: not superior to placebo
